Earlier results on one compound are cited in US8202840B2, “Enhanced ocular neuroprotection and neurostimulation” (Minu L.L.C., priority 2005, dated 2012).

For data set [1], the target named is immunophilin FK 506-binding protein (FKBP) (Homo sapiens, UniProt P62942). The note with it: in vitro.
For data set [2] the following is noted: administered systemically.
Data set [3] deals with Ganglion cells in the retina (RGC). Conditions: systemically administered.

Sequence of immunophilin FK 506-binding protein (FKBP) (P62942 whole entry): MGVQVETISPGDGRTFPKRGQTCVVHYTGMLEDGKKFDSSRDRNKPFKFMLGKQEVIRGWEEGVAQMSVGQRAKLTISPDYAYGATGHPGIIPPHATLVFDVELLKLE

With `C=CC[C@@H]1/C=C(\C)C[C@H](C)C[C@H](OC)[C@H]2O[C@@](O)(C(=O)C(=O)N3CCCC[C@H]3C(=O)O[C@H](/C(C)=C/[C@@H]3CC[C@@H](O)[C@H](OC)C3)[C@H](C)[C@@H](O)CC1=O)[C@H](C)C[C@@H]2OC` [tacrolimus, Tacrolimus], in data set [1], the “binding to and inhibition of FKBP activity” value was “binds to and inhibits the activity”. In addition, the solubility in chloroform result (chloroform) is given as “very soluble”. Also, the solubility in ethanol result (ethanol) is “freely soluble”. For the same compound, the solubility in methanol result (methanol) was “very soluble”. For the same compound, the solubility in water entry (water) is given as “practically insoluble”. In addition, the “renal and hepatic toxicity” value in data set [2] is “significant renal and hepatic toxicity”. Moreover, the “neuroprotection on RGC” value in data set [3] was “conferred neuroprotection on RGC”.
